In patent publication US20260256792A1, “TREATMENT OF CHRONIC SPONTANEOUS URTICARIA BY ADMINISTERING (R)-2-[3-[4-AMINO-3-(2-FLUORO-4-PHENOXY-PHENYL)PYRAZOLO[3,4-D]PYRIMIDIN-1-YL]PIPERIDINE-1-CARBONYL]-4-METHYL-4-[4-(OXETAN-3-YL)PIPERAZIN-1-YL]PENT-2-ENENITRILE” (priority 2023, published 2026):

Tested on: moderate-to-severe chronic spontaneous urticaria (CSU)
Assay: Phase 2 CSU study: urticaria activity score over 7 days (UAS7)
Assay type: in vivo, human
Set-up: key to UAS7 Median / UAS7 Change from baseline Median / UAS7 change from baseline, Q1 / UAS7 change from baseline, Q3 / UAS7 change from baseline, Max / UAS7 Change from baseline LS Mean (SE): UAS7 points; daily UAS score ranges 0–6 points/day, over 7 days
Conditions: for RRD (%) for rilzabrutinib vs. placebo, UAS7 = 0 / RRD (%) for rilzabrutinib vs. placebo, UAS7 ≤6 / Responder n (%), UAS7 = 0 / Responder n (%), UAS7 ≤6 / Imputed non-responder n (%), UAS7 = 0 / Imputed non-responder n (%), UAS7 ≤6 / Non-responder n (%), UAS7 = 0 / Non-responder n (%), UAS7 ≤6 / OR for rilzabrutinib vs. placebo, UAS7 = 0 / OR for rilzabrutinib vs. placebo, UAS7 ≤6: Omalizumab-naïve, 400 mg TID; for Non-responder, UAS7 reduction from baseline of 10 points or more / OR for rilzabrutinib vs. placebo, UAS7 reduction of 10 points or more / RRD (%) for rilzabrutinib vs. placebo, UAS7 reduction of 10 points or more / Responder, UAS7 reduction from baseline of 10 points or more / UAS7 Change from baseline Mean (SD) / UAS7 Change from baseline Median / UAS7 Mean (SD) / UAS7 Median / UAS7 Percent change from baseline Mean (SD) / UAS7 Percent change from baseline Median: Week 1
Description: The study comprises a 12 week, randomized, double-blind, placebo-controlled, multi-center, dose-ranging efficacy and safety phase, followed by a 40 week open label extension (OLE) phase (see FIG. 1). The study consists of three phases and an optional OLE phase. […] Clinically, CSU is characterized by the spontaneous and recurrent appearance of pruritic hives. The proposed primary endpoints were the UAS7 at Week 12 in EU and EU reference countries and the ISS7 in the US. Regardless of where a participant was from, all assessments were the same. The UAS7 score is a composite score containing both the HSS7 and the ISS7. This allowed a global assessment of the two key components of urticaria: hives and itch. […] The UAS is a validated PRO measure. […] The daily UAS scores range from 0 to 6 point/day. […] Patients were to complete the UAS using the e-diary. […] The following secondary endpoints were to be analyzed using the same approach as for the primary endpoint: • Change from baseline in UAS7 at Week 4 • Change from baseline in UAS7 at Week 12 (for US and US reference countries) • Change from baseline in ISS7 at Week 12 (except US and US reference countries) • Change from baseline in HSS7 at Week 12 The following responder secondary endpoints were to be analyzed using the Cochran-Mantel-Haenszel test adjusted by region: • Proportion of participants with UAS7<6 at Week 12 • Proportion of participants with UAS7=0 at Week 12 Participants who received selected prohibited medications and/or rescue medications were to be considered as non-responders for time points after the medication usage. For other participants, all available data including those collected during the off-treatment period were to be used to determine the responder/non-responder status. Missing data were to be considered as non-responders.

[1] = 400 mg BID, Prior Omalizumab Use
[2] = 400 mg BID, omalizumab-naive participants
[3] = 400 mg QPM, Prior Omalizumab Use

CC(C)(C=C(C#N)C(=O)N1CCC[C@@H](n2nc(-c3ccc(Oc4ccccc4)cc3F)c3c(N)ncnc32)C1)N1CCN(C2COC2)CC1 [rilzabrutinib, (R)-2-[3-[4-amino-3-(2-fluoro-4-phenoxy-phenyl)pyrazolo[3,4-d]pyrimidin-1-yl]piperidine-1-carbonyl]-4-methyl-4-[4-(oxetan-3-yl)piperazin-1-yl]pent-2-enenitrile]
RRD (%) for rilzabrutinib vs. placebo, UAS7 = 0 (Week 9): −0.9 % | RRD (%) for rilzabrutinib vs. placebo, UAS7 ≤6 (Week 9): 16.7 % | Responder n (%), UAS7 = 0 (Week 9): 3 (8.6) n (%) | Responder n (%), UAS7 ≤6 (Week 9): 11 (31.4) n (%) | Imputed non-responder n (%), UAS7 = 0 (Week 10): 5 (14.3) n (%) | Imputed non-responder n (%), UAS7 ≤6 (Week 10): 5 (14.3) n (%) | Non-responder n (%), UAS7 = 0 (Week 10): 31 (88.6) n (%) | Non-responder n (%), UAS7 ≤6 (Week 10): 25 (71.4) n (%) | OR for rilzabrutinib vs. placebo, UAS7 = 0 (Week 10): 0.819 | OR for rilzabrutinib vs. placebo, UAS7 ≤6 (Week 10): 2.241 | RRD (%) for rilzabrutinib vs. placebo, UAS7 = 0 (Week 10): −1.7 % | RRD (%) for rilzabrutinib vs. placebo, UAS7 ≤6 (Week 10): 12.1 % | Responder n (%), UAS7 = 0 (Week 10): 4 (11.4) n (%) | Responder n (%), UAS7 ≤6 (Week 10): 10 (28.6) n (%) | Imputed non-responder n (%), UAS7 = 0 (Week 11): 4 (11.4) n (%) | Imputed non-responder n (%), UAS7 ≤6 (Week 11): 4 (11.4) n (%) | Non-responder n (%), UAS7 = 0 (Week 11): 31 (88.6) n (%) | Non-responder n (%), UAS7 ≤6 (Week 11): 24 (68.6) n (%) | OR for rilzabrutinib vs. placebo, UAS7 = 0 (Week 11): 1.846 | OR for rilzabrutinib vs. placebo, UAS7 ≤6 (Week 11): 1.971 | RRD (%) for rilzabrutinib vs. placebo, UAS7 = 0 (Week 11): 4.3 % | RRD (%) for rilzabrutinib vs. placebo, UAS7 ≤6 (Week 11): 11.2 % | Responder n (%), UAS7 = 0 (Week 11): 4 (11.4) n (%) | Responder n (%), UAS7 ≤6 (Week 11): 11 (31.4) n (%) | Imputed non-responder n (%), UAS7 = 0 (Week 12): 8 (22.9) n (%) | Imputed non-responder n (%), UAS7 ≤6 (Week 12): 8 (22.9) n (%) | Non-responder n (%), UAS7 = 0 (Week 12): 28 (80.0) n (%) | Non-responder n (%), UAS7 ≤6 (Week 12): 23 (65.7) n (%) | OR for rilzabrutinib vs. placebo, UAS7 = 0 (Week 12): 1.800 | OR for rilzabrutinib vs. placebo, UAS7 ≤6 (Week 12): 3.980 | RRD (%) for rilzabrutinib vs. placebo, UAS7 = 0 (Week 12): 6.9 % | RRD (%) for rilzabrutinib vs. placebo, UAS7 ≤6 (Week 12): 20.3 % | Responder n (%), UAS7 = 0 (Week 12): 7 (20.0) n (%) | Responder n (%), UAS7 ≤6 (Week 12): 12 (34.3) n (%) | Non-responder, UAS7 reduction from baseline of 10 points or more (400 mg BID, ITT population): 23 (56.1) n (%) | OR for rilzabrutinib vs. placebo, UAS7 reduction of 10 points or more (400 mg BID, ITT population): 2.607 | RRD (%) for rilzabrutinib vs. placebo, UAS7 reduction of 10 points or more (400 mg BID, ITT population): 20.0 % | Responder, UAS7 reduction from baseline of 10 points or more (400 mg BID, ITT population): 18 (43.9) n (%) | UAS7 Change from baseline Mean (SD) (400 mg BID, Omalizumab-Naïve): −9.96 (8.81) | UAS7 Change from baseline Median (400 mg BID, Omalizumab-Naïve): −9.00 | UAS7 Mean (SD) (400 mg BID, Omalizumab-Naïve): 19.77 (11.32) | UAS7 Median (400 mg BID, Omalizumab-Naïve): 21.00 | UAS7 Percent change from baseline Mean (SD) (400 mg BID, Omalizumab-Naïve): −35.41 (33.69) % | UAS7 Percent change from baseline Median (400 mg BID, Omalizumab-Naïve): −26.19% | UAS7 Change from baseline Mean (SD) [1]: −11.83 (12.14) | UAS7 Change from baseline Median [1]: −7.50 | UAS7 Median [1]: 23.50 | UAS7 Percent change from baseline Mean (SD) [1]: −35.59 (37.55) % | UAS7 Percent change from baseline Median [1]: −20.53% | Non-responder, UAS7 reduction from baseline of 10 points or more [2]: 19 (54.3) n (%) | OR for rilzabrutinib vs. placebo, UAS7 reduction of 10 points or more [2]: 2.862 | RRD (%) for rilzabrutinib vs. placebo, UAS7 reduction of 10 points or more [2]: 22.3 % | Responder, UAS7 reduction from baseline of 10 points or more [2]: 16 (45.7) n (%) | Non-responder, UAS7 reduction from baseline of 10 points or more (400 mg QPM, ITT population): 26 (68.4) n (%) | OR for rilzabrutinib vs. placebo, UAS7 reduction of 10 points or more (400 mg QPM, ITT population): 1.672 | Responder, UAS7 reduction from baseline of 10 points or more (400 mg QPM, ITT population): 12 (31.6) n (%) | UAS7 Change from baseline Mean (SD) (400 mg QPM, Omalizumab-Naïve): −7.30 (9.14) | UAS7 Change from baseline Median (400 mg QPM, Omalizumab-Naïve): −6.00 | UAS7 Mean (SD) (400 mg QPM, Omalizumab-Naïve): 23.81 (8.78) | UAS7 Median (400 mg QPM, Omalizumab-Naïve): 25.00 | UAS7 Percent change from baseline Mean (SD) (400 mg QPM, Omalizumab-Naïve): −21.72 (26.65) % | UAS7 Percent change from baseline Median (400 mg QPM, Omalizumab-Naïve): −17.95% | UAS7 Change from baseline Mean (SD) [3]: −16.00 (NC) | UAS7 Change from baseline Median [3]: −16.00 | UAS7 Mean (SD) [3]: 25.00 (NC) | UAS7 Median [3]: 25.00
